According to paper PMC5026067, “Substrate Fragmentation for the Design of M. tuberculosis CYP121 Inhibitors” (Chemmedchem, 2016):

What follows are compounds tested against T1, Mtb CYP121 (Mycobacterium tuberculosis, UniProt P9WPP7) (assay: thermal shift assay). Conditions: not given.
Type: binding
Description: thermal shift assay on Mtb CYP121

T1 sequence (P9WPP7 whole entry): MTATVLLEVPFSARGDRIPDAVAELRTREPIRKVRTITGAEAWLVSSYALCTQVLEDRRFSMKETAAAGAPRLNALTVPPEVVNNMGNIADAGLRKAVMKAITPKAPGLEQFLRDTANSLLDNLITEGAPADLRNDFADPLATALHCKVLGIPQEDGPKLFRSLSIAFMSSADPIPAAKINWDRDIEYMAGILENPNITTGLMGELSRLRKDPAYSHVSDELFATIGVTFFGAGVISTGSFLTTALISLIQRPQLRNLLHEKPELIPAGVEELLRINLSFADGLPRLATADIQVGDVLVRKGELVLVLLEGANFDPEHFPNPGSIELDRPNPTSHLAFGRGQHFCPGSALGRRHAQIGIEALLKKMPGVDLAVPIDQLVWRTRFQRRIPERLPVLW

Question: Which ΔTm at 5000 µM does the source give for COC(=O)[C@H](N)Cc1ccc(O)cc1 [1b, D-tyrosine methyl ester] here?
Answer: Its ΔTm at 5000 µM is 3 °C.

These compounds were tested against CYP124 (Mycobacterium tuberculosis, UniProt P9WPP3) (assay: UV/vis Soret shift). Conditions: 10 µM; […] ligand, […] DMSO; weak blue shift.
Type: binding

Sequence of CYP124 (P9WPP3 whole entry): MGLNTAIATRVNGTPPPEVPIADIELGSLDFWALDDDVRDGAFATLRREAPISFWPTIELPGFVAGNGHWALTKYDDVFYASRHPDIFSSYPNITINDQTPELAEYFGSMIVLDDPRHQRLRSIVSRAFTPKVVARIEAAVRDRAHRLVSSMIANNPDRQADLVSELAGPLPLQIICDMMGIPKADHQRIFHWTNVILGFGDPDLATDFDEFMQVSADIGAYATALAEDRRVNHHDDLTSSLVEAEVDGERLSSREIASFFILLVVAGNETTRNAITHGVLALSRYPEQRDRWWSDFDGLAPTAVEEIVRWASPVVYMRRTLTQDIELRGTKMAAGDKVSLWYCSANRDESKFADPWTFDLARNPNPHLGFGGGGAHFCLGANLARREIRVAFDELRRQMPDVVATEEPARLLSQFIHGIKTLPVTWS

Question: How did the CYP124 turn out when NC(Cc1c[nH]c2ccc(Br)cc12)C(=O)SCCc1ccccc1 (racemic) [compound 31, compound 31 (5-bromo-tryptophan phenethyl-thioester)] was run?
Answer: Its CYP124 is −2 nm.

Same assay, conditions: 100 µM; […] ligand, […] DMSO; weak blue shift

Question: N[C@H](Cc1c[nH]c2ccccc12)C(=O)NCCc1c[nH]c2ccccc12 [compound 9, acyclic cWW-9] was tested. Which CYP124 did it give?
Answer: The CYP124 was −2 nm.

Each compound was assayed against CYP142 (Mycobacterium tuberculosis, UniProt P9WPL5) (assay: UV/vis Soret shift). Conditions: 2000 µM; […] ligand, […] DMSO; type II.
Type: binding
Description: UV/vis Soret shift on CYP142

Sequence of CYP142 (P9WPL5 whole entry): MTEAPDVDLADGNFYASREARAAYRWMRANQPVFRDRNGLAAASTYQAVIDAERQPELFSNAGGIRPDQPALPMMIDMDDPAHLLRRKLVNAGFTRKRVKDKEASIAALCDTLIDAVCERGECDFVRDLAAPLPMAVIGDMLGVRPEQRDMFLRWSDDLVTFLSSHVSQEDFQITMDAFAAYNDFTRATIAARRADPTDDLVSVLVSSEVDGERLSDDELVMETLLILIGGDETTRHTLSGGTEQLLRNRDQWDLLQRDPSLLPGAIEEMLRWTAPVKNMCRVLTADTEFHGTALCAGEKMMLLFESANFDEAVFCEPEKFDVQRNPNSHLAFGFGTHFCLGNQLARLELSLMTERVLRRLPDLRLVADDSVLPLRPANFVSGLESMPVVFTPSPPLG

Question: Which CYP142 does the source give for COC(=O)[C@H](N)Cc1c[nH]c2ccccc12 [1a, D-tryptophan methyl ester] here?
Answer: The CYP142 was “+2 nm”.

These compounds were tested against T1, Mtb CYP121 (assay: UV/vis optical titration (Soret shift)). Conditions: not given.
Type: binding
Description: UV/vis optical titration (Soret shift) on Mtb CYP121

Question: How did the Kd turn out when N[C@H](Cc1c[nH]c2ccccc12)c1nc(-c2ccccc2)c[nH]1 [compound 14, imidazole 14] was run?
Answer: Its Kd is 530 ± 100 µM.

Same assay, conditions: read-out: K d [μM]^[b]

Question: NC(Cc1c[nH]c2ccc(O)cc12)C(=O)SCCc1ccccc1 (racemic) [compound 26, compound 26 (5-hydroxy indole)] was tested. Which Kd did it give?
Answer: The Kd was 130 ± 9.3 µM.

Question: NC(Cc1c[nH]c2ncccc12)C(=O)SCCc1ccccc1 (racemic) [compound 27, aza-tryptophan analogue 27] was tested. Which Kd did it give?
Answer: Its Kd is 110 ± 9.1 µM.

Question: NC(Cc1c[nH]c2ccc(Br)cc12)C(=O)SCCc1ccccc1 (racemic) [compound 31, compound 31 (5-bromo-tryptophan phenethyl-thioester)] was tested. Which Kd did it give?
Answer: Its Kd is 16 ± 2.4 µM.

Question: NC(Cc1c[nH]c2ccc(Br)cc12)c1nc(-c2ccccc2)cs1 (racemic) [compound 32, compound 32 (5-bromo-tryptophan phenyl-thiazole)] was tested. Which Kd did it give?
Answer: The Kd was 32 ± 2.5 µM.

Question: Which Kd does the source give for COC(=O)[C@H](N)Cc1c[nH]c2ccccc12 [1a, D-tryptophan methyl ester] here?
Answer: The Kd was 840 ± 88 µM.

Question: For N[C@H](Cc1c[nH]c2ccccc12)C(=O)OCCc1ccccc1 [compound 2, phenethyl ester 2], which Kd is on record?
Answer: Its Kd is 200 ± 17 µM.

Question: With N[C@@H](Cc1c[nH]c2ccccc12)C(=O)OCCc1ccccc1 [compound 3, L-phenethyl ester 3] as the compound, how does the Kd read?
Answer: Its Kd is 200 ± 19 µM.

Question: N[C@H](Cc1c[nH]c2ccccc12)C(=O)NCCc1ccc(O)cc1 [compound 7, acyclic cYW-7] was tested. Which Kd did it give?
Answer: The Kd was 260 ± 14 µM.

Question: How did the Kd turn out when N[C@H](Cc1c[nH]c2ccccc12)C(=O)NCCc1ccccc1 [compound 8, acyclic cWF-8] was run?
Answer: Its Kd is 270 ± 22 µM.

Question: Which Kd does the source give for N[C@H](Cc1c[nH]c2ccccc12)C(=O)NCCc1c[nH]c2ccccc12 [compound 9, acyclic cWW-9] here?
Answer: Its Kd is 110 ± 6 µM.

Question: With N[C@H](Cc1c[nH]c2ccccc12)C(=S)NCCc1ccccc1 [compound 12, thioamide 12] as the compound, how does the Kd read?
Answer: Its Kd is 150 ± 18 µM.

Question: N[C@H](Cc1c[nH]c2ccccc12)c1nc(-c2ccccc2)cs1 [compound 13, thiazole 13] was tested. Which Kd did it give?
Answer: The Kd was 44 ± 3.6 µM.

Question: For N[C@H](Cc1c[nH]c2ccccc12)C(=O)SCCc1c[nH]c2ccccc12 [compound 17, indole-substituted thioester 17], which Kd is on record?
Answer: Its Kd is 45 ± 4.4 µM.

Question: With N[C@H](Cc1c[nH]c2ccccc12)c1nc(Cc2c[nH]c3ccccc23)cs1 [compound 18, indole-substituted thiazole 18] as the compound, how does the Kd read?
Answer: The Kd was 52 ± 3.1 µM.

Question: For N[C@H](Cc1c[nH]c2ccccc12)C(=O)OC/C=C/c1ccccc1 [compound 20, compound 20 (trans-alkene)], which Kd is on record?
Answer: The Kd was 120 ± 21 µM.

Question: For N[C@H](Cc1c[nH]c2ccccc12)C(=O)SCC1CC(c2ccccc2)=NO1 (stereo partly shown) [compound 25, phenyl-isoxazole-substituted compound 25], which Kd is on record?
Answer: The Kd was 35 ± 4.2 µM.

Question: With NC(Cc1ccccc1Br)C(=O)SCCc1ccccc1 (stereo not shown) [compound 30, 2-bromophenylalanine derivative 30] as the compound, how does the Kd read?
Answer: The Kd was 30 ± 3.8 µM.
